Results reported in US6974681B1, “Cell culture performance with vanadate” (Immunex Corporation, priority 2002, dated 2005).
Where “and” joins values, the source holds several entries; their conditions need not be identical. Equal entries are not always repeated.

Tests used:
[1] = tested on: Recombinant CHO Cells; assay: Effect of vanadate and reduced IGF-1 on recombinant CHO cells; assay type: cell-based, Chinese Hamster; set-up: cells/ml: scale not given here
Experimental: (§1) Vanadate can also reduce the requirement for growth factors to maintain recombinant cell viability. […] At 5 ng/L with vanadate, IGF-1 is sufficient to maintain the same viability of recombinant polypeptide producing cells as 100 μg/L IGF-1 in the absence of vanadate.

[2] = tested on: CHO cells expressing huTNFR-Fc; assay: Production of huTNFR-Fc measured by standard ELISA; assay type: cell-based, Chinese Hamster; conditions: NaButyrate 0.5 mM, culture without inducing agent normalized to 100%
Experimental: (§2) A second experiment was performed to test the effects of sodium orthovanadate on specific production of the recombinant polypeptide huTNFR-Fc, expressed from cells when compared to the same cells grown without vanadate. Flasks were inoculated at 2×10^6 cells/ml and were either grown without additional compounds or with sodium butyrate at 0.5 mM or sodium butyrate with sodium orthovanadate at 20 μM. Flasks were set up in an incubator at 31° C. Measurements for cell concentration and viability were taken using a hemacytometer and the trypan blue dye exclusion method and the results are shown in Table 2. Production of huTNFR-Fc was measured by standard ELISA.

[3] = tested on: CHO cells expressing huTNFR-Fc; assay: Cell concentration and viability (hemacytometer, trypan blue dye exclusion) of cultures expressing huTNFR-Fc with inducing agents; assay type: cell-based, Chinese Hamster; conditions: day 5, 31° C.
Experimental: as §2

[4] = tested on: Chinese Hamster Ovary (CHO) cell line genetically engineered to produce huTNFR:Fc; assay: Dose response of vanadate in shake flask cultures (viable cell density, viability); assay type: cell-based; conditions: day 5, shake flask, serum-free medium
Experimental: In this experiment, the effect of adding various concentrations of vanadate was tested in mammalian cell shake flask cultures. A Chinese Hamster Ovary (CHO) cell line that had been genetically engineered to produce huTNFR:Fc (a soluble form of the human tumor necrosis factor alpha receptor extracellular domain fused to an Fc polypeptide from an immunogolublin see in U.S. Pat. No. 5,945,397) was grown in serum-free medium. A dose response analysis was performed to determine an optimal dose for vanadate.

[5] = tested on: recombinant cell culture (expressing huTNFR-Fc); assay: Bioreactor culture (balanced feed experiment) with reduced IGF-1 plus vanadate, FIG. 1; assay type: cell-based; conditions: 25 µg/L IGF-1 with 20 μM sodium orthovanadate compared to 100 µg/L IGF-1 without vanadate
Experimental: FIG. 1. Addition of sodium orthovanadate to a recombinant cell culture (expressing huTNFR-Fc) reduces the requirement for IGF-1 to maintain viability in a balanced feed experiment. […]
as §1
The results from these experiments show how adding vanadate, in this case orthovanadate, can be applied in mammalian cell culture for a number of purposes. Cell viability is increased in cultures having 20 μM orthovanadate compared to cells grown without orthovanadate over a five day period (FIG. 1). In short, adding vanadate, such as orthovanadate, helps to create a more efficient mammalian cell culture process by reducing cell death, reducing the requirement of growth factors in the cell culture and increasing secreted polypeptide production.

[6] = IGF-1 5 ng/L, without sodium orthovanadate (−)
[7] = IGF-1 100 μg/L, without sodium orthovanadate (−)
[8] = with sodium orthovanadate (+), IGF-1 5 ng/L
[9] = with sodium orthovanadate (+), IGF-1 100 μg/L

For “IGF-1: insulin like growth factor (IGF-1), growth factor added to the medium”, the “% viable” value [1, 6] was 58%, the cells/ml [1, 6] was 3.936 cells/ml and the “% viable” value [1, 7] was 74%. For the same compound, the cells/ml [1, 7] was 5.825 cells/ml.
For `CCCC(=O)[O-].[Na+]` [NaButyrate, sodium butyrate], the “Specific Productivity” value [2] was 161% and 153%, the Titer [2] was 140% and 125% and the “% Viability” value ([3]; NaButyrate 0.5 mM) was 78%. The “VCD, ×10^6” value ([3]; NaButyrate 0.5 mM) was 5.547 ×10^6 and 5.067 ×10^6.
With `[Na+].[Na+].[Na+].[O]=[V]([O-])([O-])[O-]` [Vanadate, sodium orthovanadate] the “% Viability” value ([4]; 10 uM vanadate) was 80% and 89%, the “VCD, ×10^6” value ([4]; 10 uM vanadate) was 5.102 ×10^6 and 6.796 ×10^6 and the “% Viability” value ([4]; 20 uM vanadate) was 90%. For the same compound, the “VCD, ×10^6” value ([4]; 20 uM vanadate) was 5.8 ×10^6, the “% Viability” value ([4]; 35 uM vanadate) was 87% and 90% and the “VCD, ×10^6” value ([4]; 35 uM vanadate) was 5.142 ×10^6 and 5.184 ×10^6. The “% Viability” value ([4]; 50 uM vanadate) was 83% and 81%, the “VCD, ×10^6” value ([4]; 50 uM vanadate) was 4.136 ×10^6 and 3.625 ×10^6 and the “% Viability” value ([3]; sodium butyrate 0.5 mM with sodium orthovanadate 20 μM (0.02 mM)) was 95%. The cell viability ([5]; after four days) was “improved”, the cell survival ([5]; after six days) was “markedly more cell survival” and the “% viable” value [1, 8] was 73%. The cells/ml [1, 8] was 4.916 cells/ml, the “% viable” value [1, 9] was 90% and the cells/ml [1, 9] was 6.806 cells/ml.
